ChEMBL document CHEMBL5532755, “Unveiling the potent activity of a synthetic ion transporter against multidrug-resistant Gram-positive bacteria and biofilms” (RSC Med Chem, 2024)
In brackets after ≈: the same amount, converted by molar mass. Activity calls are given as the source filed them. The calls are words filed in the database; no cut-off is given here.

Assays:
[1] = system: Staphylococcus aureus; assay: Antibacterial activity against Staphylococcus aureus MTCC 737 incubated for 16 to 18 hrs by broth dilution method; format: functional; settings: time 16-18 hrs
[2] = system: Staphylococcus epidermidis; assay: Antibacterial activity against Staphylococcus epidermidis MTCC 3615 incubated for 16 to 18 hrs by broth dilution method; format: functional; settings: time 16-18 hrs
[3] = system: Enterococcus faecium; assay: Antibacterial activity against Enterococcus faecium ATCC 19634 incubated for 16 to 18 hrs by broth dilution method; format: functional; settings: time 16-18 hrs
[4] = system: Staphylococcus aureus; assay: Antibacterial activity against methicillin-resistant Staphylococcus aureus ATCC 33591 incubated for 16 to 18 hrs by broth dilution method; format: functional; settings: time 16-18 hrs
[5] = system: Staphylococcus aureus; assay: Antibacterial activity against methicillin-resistant Staphylococcus aureus R3545 incubated for 16 to 18 hrs by broth dilution method; format: functional; settings: time 16-18 hrs
[6] = system: Staphylococcus aureus; assay: Antibacterial activity against methicillin-resistant Staphylococcus aureus R3890 incubated for 16 to 18 hrs by broth dilution method; format: functional; settings: time 16-18 hrs
[7] = system: Staphylococcus aureus; assay: Antibacterial activity against methicillin-resistant Staphylococcus aureus R3889 incubated for 16 to 18 hrs by broth dilution method; format: functional; settings: time 16-18 hrs
[8] = system: Staphylococcus aureus; assay: Antibacterial activity against vancomycin-resistant Staphylococcus aureus 1 incubated for 16 to 18 hrs by broth dilution method; format: functional; settings: time 16-18 hrs
[9] = system: Staphylococcus aureus; assay: Antibacterial activity against vancomycin-resistant Staphylococcus aureus 4 incubated for 16 to 18 hrs by broth dilution method; format: functional; settings: time 16-18 hrs
[10] = system: Enterococcus faecium; assay: Antibacterial activity against vancomycin-resistant Enterococcus faecium 903 incubated for 16 to 18 hrs by broth dilution method; format: functional; settings: time 16-18 hrs
[11] = system: Enterococcus faecium; assay: Antibacterial activity against vancomycin-resistant Enterococcus faecium 909 incubated for 16 to 18 hrs by broth dilution method; format: functional; settings: time 16-18 hrs
[12] = system: Escherichia coli; assay: Antibacterial activity against Escherichia coli MTCC 443 incubated for 16 to 18 hrs by broth dilution method; format: functional; settings: time 16-18 hrs
[13] = Hemolytic activity in human RBC incubated for 1 hr by microplate reader method; format: toxicity, cell-based, Erythrocyte; settings: human red blood cells (erythrocytes)
[14] = Cytotoxicity against MDCK cells assessed as cell viability incubated for 24 hrs by alamar blue staining based assay; format: toxicity, Canis lupus familiaris; settings: dog
[15] = system: Staphylococcus aureus; assay: Bactericidal activity against methicillin-resistant Staphylococcus aureus ATCC 33591 assessed as eradication of bacterial cells at 8 ug/ml observed within 12 hrs by time killing analysis relative to control; format: functional; settings: dose 8 µg/ml
[16] = system: Staphylococcus aureus; assay: Bactericidal activity against methicillin-resistant Staphylococcus aureus ATCC 33591 assessed as log reduction in bacterial titer at 8 ug/ml observed within 12 hrs by time killing analysis; format: functional; settings: dose 8 µg/ml
[17] = system: Staphylococcus aureus; assay: Bactericidal activity against vancomycin-resistant Staphylococcus aureus 1 assessed as log reduction in bacterial titer at 8 ug/ml observed after 12 hrs by time killing analysis; format: functional; settings: dose 8 µg/ml
[18] = system: Staphylococcus aureus; assay: Bactericidal activity against vancomycin-resistant Staphylococcus aureus 1 assessed as reduction in bacterial count at 16 ug/ml observed after 12 hrs by time killing analysis; format: functional; set-up: scale not given: the % may be the effect or the level left; settings: dose 16 µg/ml
[19] = system: Staphylococcus aureus; assay: Antibiofilm activity against methicillin-resistant Staphylococcus aureus ATCC 33591 assessed as reduction in biofilm biomass at 32 ug/ml incubated for 24 hrs by crystal violet staining based analysis relative to control; format: functional; set-up: scale not given: the % may be the effect or the level left; settings: dose 32 µg/ml
[20] = system: Staphylococcus aureus; assay: Antibiofilm activity against methicillin-resistant Staphylococcus aureus ATCC 33591 assessed as reduction in biofilm biomass at 64 ug/ml incubated for 24 hrs by crystal violet staining based analysis relative to control; format: functional; set-up: scale not given: the % may be the effect or the level left; settings: dose 64 µg/ml
[21] = system: Staphylococcus aureus; assay: Antibiofilm activity against methicillin-resistant Staphylococcus aureus ATCC 33591 assessed as log reduction in bacterial burden in biofilm at 32 ug/ml incubated for 18 hrs; format: functional; settings: dose 32 µg/ml
[22] = system: Staphylococcus aureus; assay: Antibiofilm activity against methicillin-resistant Staphylococcus aureus ATCC 33591 assessed as log reduction in bacterial burden in biofilm at 64 ug/ml incubated for 18 hrs; format: functional; settings: dose 64 µg/ml
[23] = system: Staphylococcus aureus; assay: Antibiofilm activity against methicillin-resistant Staphylococcus aureus ATCC 33591 assessed as biofilm thickness at 64 ug/ml by Syto-9/PI staining based confocal laser scanning microscopy; format: functional; settings: dose 64 µg/ml
[24] = system: Cell membrane; assay: Induction of cytoplasmic membrane depolarization in methicillin-resistant Staphylococcus aureus ATCC 33591 assessed as increase in fluorescence intensity measured after 24 min by DiSC3-5 dye based fluorescence method; settings: dose 4-16 µg/ml
[25] = system: Cell membrane; assay: Induction of cytoplasmic membrane depolarization in vancomycin-resistant Staphylococcus aureus 1 assessed as increase in fluorescence intensity and measured after 24 min by DiSC3-5 dye based fluorescence method; settings: dose 4-16 µg/ml
[26] = system: Cell membrane; assay: Induction of inner membrane permeabilization in methicillin-resistant Staphylococcus aureus ATCC 33591 assessed as appearance of dead bacterial cells with compromised membrane integrity at 16 ug/ml incubated for 4 hrs by Syto-9/PI staining based confocal microscopy; format: cell membranes; settings: dose 16.0 µg/ml
[27] = system: Staphylococcus aureus; assay: Induction of ROS generation in methicillin-resistant Staphylococcus aureus ATCC 33591 assessed as increase in fluorescence intensity by DCFH-DA dye based flow cytometry analysis; format: functional, organism-based; settings: dose 8-16 µg/ml
[28] = system: Staphylococcus aureus; assay: Induction of resistance development in methicillin-resistant Staphylococcus aureus ATCC 33591 measured after 10 days by broth dilution method; format: functional; settings: time 10.0 day
[29] = system: Cell membrane; assay: Induction of membrane depolarization in methicillin-resistant Staphylococcus aureus ATCC 33591 assessed as depolarized bacterial cells by measuring green fluorescence at 8 ug/ml incubated for 4 hrs by DiOC2(3) dye based flow cytometry analysis (reference value: 27.3%); format: cell membranes; settings: dose 8.0 µg/ml
[30] = system: Cell membrane; assay: Induction of membrane depolarization in methicillin-resistant Staphylococcus aureus ATCC 33591 assessed as depolarized bacterial cells by measuring red fluorescence at 8 ug/ml incubated for 4 hrs by DiOC2(3) dye based flow cytometry analysis (reference value: 63.8%); format: cell membranes; settings: dose 8.0 µg/ml
[31] = system: Cell membrane; assay: Induction of membrane depolarization in methicillin-resistant Staphylococcus aureus ATCC 33591 assessed as depolarized bacterial cells by measuring red to green fluorescence ratio at 8 ug/ml incubated for 4 hrs by DiOC2(3) dye based flow cytometry analysis; format: cell membranes; settings: dose 8.0 µg/ml
[32] = Cytotoxicity against MDCK cells assessed as cell viability at 0.5 to 4 ug/ml incubated for 24 hrs by alamar blue assay relative to control; format: toxicity, cell-based, Canis lupus familiaris; settings: dog, at 0.5 to 4 µg/mL, dose 0.5-4 µg/ml, read-out: Activity
[33] = Selectivity index, ratio of HC50 for hemolytic activity in human RBC to MIC for antibacterial activity against Staphylococcus aureus; format: toxicity; settings: human red blood cells (erythrocytes), read-out: Selectivity Index
[34] = Selectivity index, ratio of HC50 for hemolytic activity in human RBC to MIC for antibacterial activity against Staphylococcus epidermidis; format: toxicity; settings: human red blood cells (erythrocytes), read-out: Selectivity Index
[35] = Selectivity index, ratio of HC50 for hemolytic activity in human RBC to MIC for antibacterial activity against Enterococcus faecium; format: toxicity; settings: human red blood cells (erythrocytes), read-out: Selectivity Index
[36] = Selectivity index, ratio of HC50 for hemolytic activity in human RBC to MIC for antibacterial activity against methicillin-resistant Staphylococcus aureus ATCC 33591; format: toxicity; settings: human red blood cells (erythrocytes), read-out: Selectivity Index
[37] = Selectivity index, ratio of HC50 for hemolytic activity in human RBC to MIC for antibacterial activity against methicillin-resistant Staphylococcus aureus R3545; format: toxicity; settings: human red blood cells (erythrocytes), read-out: Selectivity Index
[38] = Selectivity index, ratio of HC50 for hemolytic activity in human RBC to MIC for antibacterial activity against methicillin-resistant Staphylococcus aureus R3890; format: toxicity; settings: human red blood cells (erythrocytes), read-out: Selectivity Index
[39] = Selectivity index, ratio of HC50 for hemolytic activity in human RBC to MIC for antibacterial activity against methicillin-resistant Staphylococcus aureus R3889; format: toxicity; settings: human red blood cells (erythrocytes), read-out: Selectivity Index
[40] = Selectivity index, ratio of HC50 for hemolytic activity in human RBC to MIC for antibacterial activity against vancomycin-resistant Staphylococcus aureus 1; format: toxicity; settings: human red blood cells (erythrocytes), read-out: Selectivity Index
[41] = Selectivity index, ratio of HC50 for hemolytic activity in human RBC to MIC for antibacterial activity against vancomycin-resistant Staphylococcus aureus 4; format: toxicity; settings: human red blood cells (erythrocytes), read-out: Selectivity Index
[42] = Selectivity index, ratio of HC50 for hemolytic activity in human RBC to MIC for antibacterial activity against vancomycin-resistant Enterococcus faecium 903; format: toxicity; settings: human red blood cells (erythrocytes), read-out: Selectivity Index
[43] = Selectivity index, ratio of HC50 for hemolytic activity in human RBC to MIC for antibacterial activity against vancomycin-resistant Enterococcus faecium 909; format: toxicity; settings: human red blood cells (erythrocytes), read-out: Selectivity Index
[44] = Hemolytic activity in human RBC at 0.5 to 2 ug/ml incubated for 1 hr by microplate reader method relative to control; format: toxicity, cell-based, Erythrocyte; settings: human red blood cells (erythrocytes), at 0.5 to 2 µg/mL, dose 0.5-2 µg/ml, read-out: Activity
[45] = system: Staphylococcus aureus; assay: Antibiofilm activity against methicillin-resistant Staphylococcus aureus ATCC 33591 assessed as eradication of bacteria by measuring colocalization of green and red cells at 64 ug/ml by Syto-9/PI staining based confocal laser scanning microscopy; format: functional, organism-based; settings: dose 64.0 µg/ml
[46] = system: Cell membrane; assay: Induction of membrane depolarization in methicillin-resistant Staphylococcus aureus ATCC 33591 assessed as depolarized bacterial cells by measuring green fluorescence at 10 to 15 ug/ml incubated for 4 hrs by DiOC2(3) dye based flow cytometry analysis (reference value: 27.3%); format: cell membranes; settings: dose 10-15 µg/ml
[47] = system: Cell membrane; assay: Induction of membrane depolarization in methicillin-resistant Staphylococcus aureus ATCC 33591 assessed as depolarized bacterial cells by measuring red fluorescence at 10 to 15 ug/ml incubated for 4 hrs by DiOC2(3) dye based flow cytometry analysis (reference value: 63.8%); format: cell membranes; settings: dose 10-15 µg/ml
[48] = system: Cell membrane; assay: Induction of membrane depolarization in methicillin-resistant Staphylococcus aureus ATCC 33591 assessed as depolarized bacterial cells by measuring red to green fluorescence ratio at 10 to 15 ug/ml incubated for 4 hrs by DiOC2(3) dye based flow cytometry analysis; format: cell membranes; settings: dose 10-15 µg/ml

Compound `CCCCNc1nc(NCCCC)nc(N2CC3CC(C2)CN(c2nc(NCCCC)nc(NCCCC)n2)C3)n1` has an MIC [1] of 0.5 µg/mL (≈ 0.879 µM), an MIC [2] of 4 µg/mL (≈ 7.03 µM) and an MIC [3] of 0.25 µg/mL (≈ 0.44 µM). It also gave an MIC [4] of 0.5 µg/mL (≈ 0.879 µM), an MIC [5] of 0.5 µg/mL (≈ 0.879 µM) and an MIC [6] of 0.5 µg/mL (≈ 0.879 µM). It also gave an MIC [7] of 0.5 µg/mL (≈ 0.879 µM), an MIC [8] of 0.5 µg/mL (≈ 0.879 µM) and an MIC [9] of 0.5 µg/mL (≈ 0.879 µM). For the same compound, the MIC [10] was 1 µg/mL (≈ 1.76 µM), the MIC [11] was 1 µg/mL (≈ 1.76 µM) and the MIC [12] was 64 µg/mL (≈ 113 µM). It also gave an HC50 at 1 h [13] of 810 µg/mL, an EC50 at 24 h [14] of 21 µg/mL (≈ 36.9 µM) and an Activity [15] of 100%. For the same compound, the “log(activity)” value [16] was greater than 5, the “log(activity)” value [17] was 3.5 and the Activity [18] was 100%. The Activity [19] was 50%, the Activity [20] was 40% and the “log(activity)” value [21] was 1.7. For the same compound, the “log(activity)” value [22] was roughly 2, the Activity [23] was 3 um and the Activity [24] was “Dose-Dependent Effect”. For the same compound, the Activity [25] was “Dose-Dependent Effect”, the Activity [26] was “Active” and the Activity [27] was “Dose-Dependent Effect”. The Activity [28] was “inactive”, the Activity [29] was 43.2% and the Activity [30] was 47.8%. For the same compound, the Ratio [31] was 1.1, the viability at 24 h [32] was greater than 95% and the selectivity ratio [33] was 400. For the same compound, the selectivity ratio [34] was 400, the selectivity ratio [35] was 400 and the selectivity ratio [36] was 800. For the same compound, the selectivity ratio [37] was 800, the selectivity ratio [38] was 800 and the selectivity ratio [39] was 800. For the same compound, the selectivity ratio [40] was 800, the selectivity ratio [41] was 800 and the selectivity ratio [42] was 800. The selectivity ratio [43] was 800, the hemolysis at 1 h [44] was 0% and the Activity [45] was “Active”.

For COLISTIN, the MIC [12] was 1 µg/mL.

`N#CC(C#N)=NNc1cccc(Cl)c1` showed an Activity [46] of 47.8%, an Activity [47] of 49.1% and a Ratio [48] of 1.1.
